Source: patent US6737383B1, “Herbicidal oxadiazolidines” (priority 1999, dated 2004)

Columns and labels:
[1] = system: giant foxtail; assay: Test B pre/postemergence giant foxtail; format: in vivo, Setaria faberii
In short: (§1)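 Response is a visual 0-to-10 score relative to untreated plants, where 0 means no effect and 10 means complete control, taken twelve to sixteen days after application. Treatments went onto soil at planting and onto foliage of 1- to 4-leaf plants, using a surfactant-containing non-phytotoxic solvent.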

[2] = system: rice; assay: Test B flood test rice; format: in vivo, Oryza sativa
In short: (§2)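 Plants were grown to the 2-leaf stage before treatment with test chemical, then held in a greenhouse for twelve to sixteen days. Injury was visually rated against untreated controls on a 0–10 scale, where 0 is no effect and 10 is complete control.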

[3] = system: wheat; assay: Test B pre/postemergence wheat; format: in vivo, Triticum aestivum; details: for Plant response rating, Wheat: scale of 0 to 10 where 0 is no effect and 10 is complete control
In short: as §1

[4] = system: soybean; assay: Test B pre/postemergence soybean; format: in vivo, Glycine max; details: for Plant response rating, Soybean: scale of 0 to 10 where 0 is no effect and 10 is complete control
In short: as §1

[5] = system: corn; assay: Test B pre/postemergence corn; format: in vivo, Zea mays
In short: as §1

[6] = system: smallflower flatsedge; assay: Test B flood test smallflower flatsedge; format: in vivo, Cyperus difformis
In short: as §2

[7] = system: blackgrass; assay: Test B pre/postemergence blackgrass; format: in vivo, Alopecurus myosuroides
In short: as §1

[8] = system: cocklebur; assay: Test B pre/postemergence cocklebur; format: in vivo, Xanthium strumarium
In short: as §1

[9] = system: rape; assay: Test B pre/postemergence rape; format: in vivo, Brassica napus; details: for Plant response rating, Rape: scale of 0 to 10 where 0 is no effect and 10 is complete control
In short: as §1

[10] = system: velvetleaf; assay: Test B pre/postemergence velvetleaf; format: in vivo, Abutilon theophrasti; details: for Plant response rating, Velvetleaf: scale of 0 to 10 where 0 is no effect and 10 is complete control
In short: as §1

[11] = system: duck salad; assay: Test B flood test duck salad; format: in vivo, Heteranthera limosa
In short: as §2

[12] = system: surinam grass; assay: Test B pre/postemergence surinam grass; format: in vivo, Brachiaria decumbens
In short: as §1

[13] = system: pigweed; assay: Test B pre/postemergence pigweed; format: in vivo, Amaranthus retroflexus; details: for Plant response rating, Redroot pigweed: scale of 0 to 10 where 0 is no effect and 10 is complete control
In short: as §1

[14] = system: wild oat; assay: Test B pre/postemergence wild oat; format: in vivo, Avena fatua; details: for Plant response rating, Wild oats: scale of 0 to 10 where 0 is no effect and 10 is complete control
In short: as §1

[15] = system: crabgrass; assay: Test B pre/postemergence crabgrass; format: in vivo, Digitaria sanguinalis
In short: as §1

[16] = system: sugar beet; assay: Test B pre/postemergence sugar beet; format: in vivo, Beta vulgaris; details: for Plant response rating, Sugarbeets: scale of 0 to 10 where 0 is no effect and 10 is complete control
In short: as §1

[17] = Postemergence, Rate 250 g/ha, scale 0 to 10
[18] = Postemergence, Rate 500 g/ha, scale of 0 to 10 where 0 is no effect and 10 is complete control
[19] = Preemergence, Rate 62 g/ha, scale of 0 to 10 where 0 is no effect and 10 is complete control
[20] = Preemergence, Rate 125 g/ha, scale of 0 to 10 where 0 is no effect and 10 is complete control
[21] = Preemergence, Rate 250 g/ha, scale 0 to 10, 0 is no effect, 10 is complete control
[22] = Preemergence, Rate 500 g/ha, scale 0 to 10, 0 is no effect, 10 is complete control
[23] = Rate 62 g/ha, Postemergence, scale 0 to 10 (0 no effect, 10 complete control)
[24] = Rate 125 g/ha, Postemergence, scale 0 to 10, 0 is no effect, 10 is complete control
[25] = Rate 62 g/ha, flood test species, Pre-emergence, visual evaluation after twelve to sixteen days
[26] = Rate 125 g/ha, under heading Pre-emergence, flood test species, visual evaluation after twelve to sixteen days
[27] = Rate 250 g/ha, Pre-emergence (flood test species), scale 0 to 10, 0 is no effect, 10 is complete control
[28] = Rate 500 g/ha, Pre-emergence, flood test species, scale 0 to 10 (0 no effect, 10 complete control)

SMILES: CC(C)N(C(=O)n1oc(=O)n(C(C)C(=O)N(C)C)c1=O)c1ccc(F)cc1 (stereo not shown) [Compound 478]
- Giant foxtail plant response rating [1, 17]: 8
- Giant foxtail plant response rating [1, 18]: 9
- Plant response rating, Giant foxtail [1, 19]: 9
- Plant response rating, Giant foxtail [1, 20]: 10
- Giant foxtail plant response rating [1, 21]: 10
- Giant foxtail plant response rating [1, 22]: 10
- Giant foxtail plant response rating [1, 23]: 3
- Giant foxtail plant response rating [1, 24]: 6
- Plant response rating, Rice (0 to 10 scale, 0 is no effect, 10 is complete control) [2, 25]: 0
- Rice plant response rating (0 to 10 scale, 0 is no effect, 10 is complete control) [2, 26]: 0
- Rice plant response rating [2, 27]: 0
- Rice plant response rating [2, 28]: 0
- Wheat plant response rating [3, 17]: 2
- Plant response rating, Wheat ([3]; Preemergence, Rate 62 g/ha): 0
- Plant response rating, Wheat ([3]; Preemergence, Rate 125 g/ha): 0
- Wheat plant response rating [3, 21]: 1
- Wheat plant response rating [3, 22]: 8
- Wheat plant response rating [3, 23]: 0
- Wheat plant response rating [3, 24]: 0
- Soybean plant response rating [4, 17]: 2
- Plant response rating, Soybean ([4]; Preemergence, Rate 62 g/ha): 0
- Plant response rating, Soybean ([4]; Preemergence, Rate 125 g/ha): 0
- Soybean plant response rating [4, 21]: 0
- Soybean plant response rating [4, 22]: 0
- Soybean plant response rating [4, 23]: 2
- Soybean plant response rating [4, 24]: 2
- Corn plant response rating [5, 17]: 0
- Corn plant response rating [5, 18]: 2
- Plant response rating, Corn [5, 19]: 0
- Plant response rating, Corn [5, 20]: 0
- Corn plant response rating [5, 21]: 0
- Corn plant response rating [5, 22]: 0
- Corn plant response rating [5, 23]: 0
- Corn plant response rating [5, 24]: 0
- Plant response rating, S. Flatsedge (0 to 10 scale, 0 is no effect, 10 is complete control) [6, 25]: 0
- S. Flatsedge plant response rating (0 to 10 scale, 0 is no effect, 10 is complete control) [6, 26]: 0
- S. Flatsedge plant response rating [6, 27]: 0
- S. Flatsedge plant response rating [6, 28]: 0
- Blackgrass plant response rating [7, 17]: 8
- Blackgrass plant response rating [7, 18]: 8
- Plant response rating, Blackgrass [7, 19]: 4
- Plant response rating, Blackgrass [7, 20]: 8
- Blackgrass plant response rating [7, 21]: 10
- Blackgrass plant response rating [7, 22]: 10
- Blackgrass plant response rating [7, 23]: 0
- Blackgrass plant response rating [7, 24]: 2
- Cocklebur plant response rating [8, 17]: 0
- Cocklebur plant response rating [8, 18]: 0
- Plant response rating, Cocklebur [8, 19]: 0
- Plant response rating, Cocklebur [8, 20]: 0
- Cocklebur plant response rating [8, 21]: 0
- Cocklebur plant response rating [8, 22]: 0
- Cocklebur plant response rating [8, 23]: 0
- Cocklebur plant response rating [8, 24]: 0
- Rape plant response rating [9, 17]: 0
- Plant response rating, Rape ([9]; Preemergence, Rate 62 g/ha): 0
- Plant response rating, Rape ([9]; Preemergence, Rate 125 g/ha): 1
- Rape plant response rating [9, 21]: 4
- Rape plant response rating [9, 22]: 6
- Rape plant response rating [9, 23]: 0
- Rape plant response rating [9, 24]: 0
- Velvetleaf plant response rating [10, 17]: 0
- Plant response rating, Velvetleaf ([10]; Preemergence, Rate 62 g/ha): 0
- Plant response rating, Velvetleaf ([10]; Preemergence, Rate 125 g/ha): 1
- Velvetleaf plant response rating [10, 21]: 3
- Velvetleaf plant response rating [10, 22]: 7
- Velvetleaf plant response rating [10, 23]: 0
- Velvetleaf plant response rating [10, 24]: 0
- Plant response rating, Ducksalad (0 to 10 scale, 0 is no effect, 10 is complete control) [11, 25]: 0
- Ducksalad plant response rating (0 to 10 scale, 0 is no effect, 10 is complete control) [11, 26]: 0
- Ducksalad plant response rating [11, 27]: 0
- Ducksalad plant response rating [11, 28]: 0
- B. signalgrass plant response rating ([12]; Postemergence, Rate 250 g/ha, scale 0 to 10, 0 no effect, 10 complete control): 5
- B. signalgrass plant response rating [12, 18]: 8
- Plant response rating, B. signalgrass [12, 19]: 4
- Plant response rating, B. signalgrass [12, 20]: 6
- B. signalgrass plant response rating [12, 21]: 9
- B. signalgrass plant response rating [12, 22]: 10
- B. signalgrass plant response rating [12, 23]: 0
- B. signalgrass plant response rating [12, 24]: 0
- Redroot pigweed plant response rating [13, 17]: 3
- Plant response rating, Redroot pigweed ([13]; Preemergence, Rate 62 g/ha): 8
- Plant response rating, Redroot pigweed ([13]; Preemergence, Rate 125 g/ha): 8
- Redroot pigweed plant response rating [13, 21]: 9
- Redroot pigweed plant response rating [13, 22]: 10
- Redroot pigweed plant response rating [13, 23]: 1
- Redroot pigweed plant response rating [13, 24]: 2
- Wild oats plant response rating [14, 17]: 0
- Plant response rating, Wild oats ([14]; Preemergence, Rate 62 g/ha): 2
- Plant response rating, Wild oats ([14]; Preemergence, Rate 125 g/ha): 7
- Wild oats plant response rating [14, 21]: 9
- Wild oats plant response rating [14, 22]: 10
- Wild oats plant response rating [14, 23]: 0
- Wild oats plant response rating [14, 24]: 0
- Crabgrass plant response rating [15, 17]: 8
- Crabgrass plant response rating [15, 18]: 9
- Plant response rating, Crabgrass [15, 19]: 8
- Plant response rating, Crabgrass [15, 20]: 9
- Crabgrass plant response rating [15, 21]: 10
- Crabgrass plant response rating [15, 22]: 10
- Crabgrass plant response rating [15, 23]: 2
- Crabgrass plant response rating [15, 24]: 3
- Sugarbeets plant response rating [16, 17]: 0
- Plant response rating, Sugarbeets ([16]; Preemergence, Rate 62 g/ha): 0
- Plant response rating, Sugarbeets ([16]; Preemergence, Rate 125 g/ha): 0
- Sugarbeets plant response rating [16, 21]: 3
- Sugarbeets plant response rating [16, 22]: 7
- Sugarbeets plant response rating [16, 23]: 0
- Sugarbeets plant response rating [16, 24]: 0
